Assay results as given in ChEMBL document CHEMBL1909294, “Translating clinical findings into knowledge in drug safety evaluation--drug induced liver injury prediction system (DILIps)” (PLoS Comput Biol, 2011).

Columns and labels:
Hepatotoxicity [1] = test system: Hepatotoxicity;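 as to HepSE bilirubinemia: bilirubinemia hepatic side effect score drawn from the DILIps training data, a prediction system for drug-induced liver injury; call rule not given here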;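 as to HepSE cholecystitis: Cholecystitis-related hepatic side effect score drawn from the DILIps (drug-induced liver injury prediction) training data set; call rule not given here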;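 as to HepSE cholelithiasis: hepatic side effect score for cholelithiasis, drawn from the DILIps training data for predicting drug-induced liver injury; call rule not given here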;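 as to HepSE cirrhosis: cirrhosis hepatic side effect score taken from the DILIps (drug-induced liver injury prediction) training set; call rule not given here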;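 as to HepSE elevated liver function tests: hepatic side effect score for raised liver function tests, as recorded in the DILIps training set used for predicting drug-induced liver injury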; as to HepSE hepatic failure: call rule not given here;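 as to HepSE hepatomegaly: hepatic side effect score for hepatomegaly, taken from the training set of the DILIps drug-induced liver injury prediction system; call rule not given here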
Hepatotoxicity [2] = test system: Hepatotoxicity; remark: listed apart in the source;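 as to HepSE bilirubinemia: bilirubinemia hepatic side effect score drawn from the DILIps training data, a prediction system for drug-induced liver injury; call rule not given here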;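 as to HepSE cholecystitis: Cholecystitis-related hepatic side effect score drawn from the DILIps (drug-induced liver injury prediction) training data set; call rule not given here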;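 as to HepSE cholelithiasis: hepatic side effect score for cholelithiasis, drawn from the DILIps training data for predicting drug-induced liver injury; call rule not given here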;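 as to HepSE cirrhosis: cirrhosis hepatic side effect score taken from the DILIps (drug-induced liver injury prediction) training set; call rule not given here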;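 as to HepSE elevated liver function tests: hepatic side effect score for raised liver function tests, as recorded in the DILIps training set used for predicting drug-induced liver injury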; as to HepSE hepatic failure: call rule not given here
Hepatotoxicity [3] = test system: Hepatotoxicity; remark: listed apart in the source;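 as to HepSE bilirubinemia: bilirubinemia hepatic side effect score drawn from the DILIps training data, a prediction system for drug-induced liver injury; call rule not given here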;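 as to HepSE cholecystitis: Cholecystitis-related hepatic side effect score drawn from the DILIps (drug-induced liver injury prediction) training data set; call rule not given here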;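 as to HepSE cholelithiasis: hepatic side effect score for cholelithiasis, drawn from the DILIps training data for predicting drug-induced liver injury; call rule not given here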;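 as to HepSE cirrhosis: cirrhosis hepatic side effect score taken from the DILIps (drug-induced liver injury prediction) training set; call rule not given here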;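 as to HepSE elevated liver function tests: hepatic side effect score for raised liver function tests, as recorded in the DILIps training set used for predicting drug-induced liver injury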; as to HepSE hepatic failure: call rule not given here
Hepatotoxicity [4] = test system: Hepatotoxicity; remark: listed apart in the source;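 as to HepSE bilirubinemia: bilirubinemia hepatic side effect score drawn from the DILIps training data, a prediction system for drug-induced liver injury; call rule not given here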;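 as to HepSE cholecystitis: Cholecystitis-related hepatic side effect score drawn from the DILIps (drug-induced liver injury prediction) training data set; call rule not given here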;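 as to HepSE cholelithiasis: hepatic side effect score for cholelithiasis, drawn from the DILIps training data for predicting drug-induced liver injury; call rule not given here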;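 as to HepSE cirrhosis: cirrhosis hepatic side effect score taken from the DILIps (drug-induced liver injury prediction) training set; call rule not given here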;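 as to HepSE elevated liver function tests: hepatic side effect score for raised liver function tests, as recorded in the DILIps training set used for predicting drug-induced liver injury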; as to HepSE hepatic failure: call rule not given here
Hepatotoxicity [5] = test system: Hepatotoxicity; remark: listed apart in the source; as to HepSE hepatic failure: call rule not given here
Hepatotoxicity [6] = test system: Hepatotoxicity; remark: listed apart in the source; as to HepSE hepatic failure: call rule not given here
Hepatotoxicity [7] = test system: Hepatotoxicity; remark: listed apart in the source
Hepatotoxicity [8] = test system: Hepatotoxicity; remark: listed apart in the source
Hepatotoxicity [9] = test system: Hepatotoxicity; remark: listed apart in the source
Hepatotoxicity [10] = test system: Hepatotoxicity; remark: listed apart in the source
Hepatotoxicity [11] = test system: Hepatotoxicity; remark: listed apart in the source
Hepatotoxicity [12] = test system: Hepatotoxicity; remark: listed apart in the source
Hepatotoxicity [13] = test system: Hepatotoxicity; remark: listed apart in the source
Hepatotoxicity [14] = test system: Hepatotoxicity; remark: listed apart in the source

Compound | HepSE_bilirubinemia (Hepatotoxicity [1]) | HepSE_cholecystitis (Hepatotoxicity [2]) | HepSE_cholelithiasis (Hepatotoxicity [3]) | HepSE_cirrhosis (Hepatotoxicity [4]) | HepSE_elevated liver function tests (Hepatotoxicity [5]) | HepSE_hepatic failure (Hepatotoxicity [6]) | HepSE_hepatic necrosis (Hepatotoxicity [7]) | HepSE_hepatitis (Hepatotoxicity [8]) | HepSE_hepatomegaly (Hepatotoxicity [9]) | HepSE_jaundice (Hepatotoxicity [10]) | HepSE_liver disease (Hepatotoxicity [11]) | HepSE_liver fatty (Hepatotoxicity [12]) | HepSE_liver function tests abnormal (Hepatotoxicity [13]) | HepSE_Combined Scores (Hepatotoxicity [14])
CC(=O)OCC(=O)[C@@]12OC(C)(C)O[C@@H]1C[C@H]1[C@@H]3C[C@H](F)C4=CC(=O)C=C[C@]4(C)[C@@]3(F)[C@@H](O)C[C@@]12C [FLUOCINONIDE] | 0 | 0 | 0 | 0 | 0 | 0 | 0 | 0 | 0 | 0 | 0 | 0 | 0 | 0
CC(CCc1ccccc1)NCC(O)c1ccc(O)c(C(N)=O)c1 (configuration not stated) [LABETALOL] | 0 | 0 | 0 | 0 | 1 | 0 | 1 | 1 | 0 | 1 | 0 | 0 | 0 | 4
COC(=O)CCC(=O)CN [METHYL AMINOLEVULINATE] | 0 | 0 | 0 | 0 | 0 | 0 | 0 | 0 | 0 | 0 | 0 | 0 | 0 | 0
CCN1CCN(C(=O)N[C@@H](C(=O)N[C@@H]2C(=O)N3C(C(=O)O)=C(CSc4nnnn4C)CS[C@H]23)c2ccc(O)cc2)C(=O)C1=O [CEFOPERAZONE] | 0 | 0 | 0 | 0 | 0 | 0 | 0 | 1 | 0 | 0 | 1 | 0 | 0 | 2
FC(F)OC(F)C(F)(F)F (configuration not stated) | 0 | 0 | 0 | 0 | 0 | 1 | 0 | 1 | 0 | 0 | 0 | 0 | 0 | 2
Nc1ncnc2c1ncn2[C@@H]1O[C@H](CO)[C@@H](O)[C@H]1O [ADENOSINE] | 0 | 0 | 0 | 0 | 0 | 0 | 0 | 0 | 0 | 0 | 0 | 0 | 0 | 0
CCCNC(=O)NS(=O)(=O)c1ccc(Cl)cc1 [CHLORPROPAMIDE] | 0 | 0 | 0 | 0 | 0 | 0 | 0 | 0 | 0 | 1 | 0 | 0 | 0 | 1
NS(=O)(=O)c1cc2c(cc1Cl)NCNS2(=O)=O [HYDROCHLOROTHIAZIDE] | 0 | 0 | 0 | 0 | 0 | 0 | 0 | 0 | 0 | 1 | 0 | 0 | 0 | 1
CC12CC3CC(C)(C1)CC(N)(C3)C2 [MEMANTINE] | 0 | 0 | 1 | 0 | 0 | 1 | 0 | 1 | 0 | 0 | 0 | 0 | 0 | 3
CO/N=C(\C(=O)N[C@@H]1C(=O)N2C(C(=O)O)=C(CSc3nc(=O)c(=O)[nH]n3C)CS[C@H]12)c1csc(N)n1 [CEFTRIAXONE] | 0 | 0 | 0 | 0 | 0 | 0 | 0 | 0 | 0 | 0 | 0 | 0 | 0 | 0
OXALIPLATIN | 1 | 0 | 0 | 0 | 0 | 0 | 0 | 0 | 0 | 0 | 1 | 0 | 0 | 2
C[C@]12C=CC(=O)N[C@@H]1CC[C@@H]1[C@@H]2CC[C@]2(C)[C@@H](C(=O)Nc3cc(C(F)(F)F)ccc3C(F)(F)F)CC[C@@H]12 [DUTASTERIDE] | 0 | 0 | 0 | 0 | 0 | 0 | 0 | 0 | 0 | 0 | 0 | 0 | 0 | 0
NC(=O)c1cnccn1 [PYRAZINAMIDE] | 0 | 0 | 0 | 0 | 0 | 0 | 0 | 0 | 0 | 0 | 0 | 0 | 0 | 0
NITROPRUSSIDE | 0 | 0 | 0 | 0 | 0 | 0 | 0 | 0 | 0 | 0 | 0 | 0 | 0 | 0
Nc1ccn([C@@H]2CS[C@H](CO)O2)c(=O)n1 [LAMIVUDINE] | 0 | 0 | 0 | 0 | 0 | 0 | 0 | 0 | 1 | 1 | 0 | 1 | 0 | 3
CO[C@@]1(NC(=O)Cc2cccs2)C(=O)N2C(C(=O)O)=C(COC(N)=O)CS[C@@H]21 [CEFOXITIN] | 0 | 0 | 0 | 0 | 0 | 0 | 0 | 0 | 0 | 1 | 0 | 0 | 0 | 1
Nc1cc(N2CCCCC2)nc(N)[n+]1[O-] [MINOXIDIL] | 0 | 0 | 0 | 0 | 0 | 0 | 0 | 0 | 0 | 0 | 0 | 0 | 0 | 0
C#CC1(O)CCC2C3CCC4=CC(=O)CCC4C3C(=C)CC21CC (configuration not stated) [IMPLANON] | 0 | 0 | 0 | 0 | 0 | 0 | 0 | 0 | 0 | 0 | 0 | 0 | 0 | 0
